Test results as given in US20140357655A1, “SPIROINDOLINE DERIVATIVES AS GONADOTROPIN- RELEASING HORMONE RECEPTOR ANTAGONISTS” (Bayer Intellectual Property GmbH, priority 2012, published 2014).

Target: T1, human GnRH receptor (Homo sapiens, UniProt P30968)
T1 sequence (P30968 1-328): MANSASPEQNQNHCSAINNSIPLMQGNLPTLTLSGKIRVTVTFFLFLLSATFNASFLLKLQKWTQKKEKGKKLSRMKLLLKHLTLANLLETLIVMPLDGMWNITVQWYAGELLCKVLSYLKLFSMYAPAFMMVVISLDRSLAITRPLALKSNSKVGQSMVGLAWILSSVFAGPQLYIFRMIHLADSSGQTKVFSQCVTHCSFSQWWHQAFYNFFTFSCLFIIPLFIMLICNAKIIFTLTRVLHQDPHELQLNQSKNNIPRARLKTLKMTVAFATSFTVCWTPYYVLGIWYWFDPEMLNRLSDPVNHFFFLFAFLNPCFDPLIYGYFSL
Assay: IP-One HTRF assay with buserelin (at EC80) stimulation
Assay type: cell-based
Conditions: CHO cells stably expressing human GnRH receptor, read-out: Potency in IP-One HTRF assay, given as IC50
In short: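 Ten-point duplicate titrations (20 μM to 1 nM) were fitted by 4-parameter model to normalized 665/620 nm HTRF ratios, 0% = no compound, 100% = no agonist. Assay measured IP1 accumulation in human GnRH-R CHO cells stimulated 1 h at 37° C with EC80 buserelin, then lysed 1 h at 22° C.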

Row | SMILES | IC50
1 | CC1N(S(=O)(=O)c2ccc(F)cc2)c2ccc(C(=O)NCc3ncccc3C(F)(F)F)cc2C12CCOCC2 (centres unmarked) [Example 3, 1-[(4-fluorophenyl)sulfonyl]-2-methyl-N-{[3-(trifluoromethyl)pyridin-2-yl]methyl}-1,2,2′,3′,5′,6′-hexahydrospiro[indole-3,4′-pyran]-5-carboxamide] | 584 nM
2 | CC1N(S(=O)(=O)c2ccc(F)cc2)c2ccc(C(=O)NCc3ccccc3C(F)(F)F)cc2C12CCOCC2 (centres unmarked) [Example 4, 1-[(4-fluorophenyl)sulfonyl]-2-methyl-N-[2-(trifluoromethyl)benzyl]-1,2,2′,3′,5′,6′-hexahydrospiro[indole-3,4′-pyran]-5-carboxamide] | 281 nM
3 | CC1N(S(=O)(=O)c2ccc(F)cc2)c2ccc(C(=O)NCc3ncc(F)cc3Cl)cc2C12CCOCC2 (centres unmarked) [Example 5, N-[(3-chloro-5-fluoropyridin-2-yl)methyl]-1-[(4-fluorophenyl)sulfonyl]-2-methyl-1,2,2′,3′,5′,6′-hexahydrospiro[indole-3,4′-pyran]-5-carboxamide] | 345 nM
4 | CC1N(S(=O)(=O)c2ccc(F)cc2)c2ccc(C(=O)NCc3ccccn3)cc2C12CCOCC2 (centres unmarked) [Example 6, 1-[(4-fluorophenyl)sulfonyl]-2-methyl-N-(2-pyridylmethyl)-1,2,2′,3′,5′,6′-hexahydrospiro[indole-3,4′-pyran]-5-carboxamide] | 6720 nM
5 | CC1N(S(=O)(=O)c2ccc(F)cc2)c2ccc(C(=O)NCc3ccc(F)cc3)cc2C12CCOCC2 (centres unmarked) [Example 7, N-(4-fluorobenzyl)-1-[(4-fluorophenyl)sulfonyl]-2-methyl-1,2,2′,3′,5′,6′-hexahydrospiro[indole-3,4′-pyran]-5-carboxamide] | 1060 nM
6 | CC1N(S(=O)(=O)c2ccc(F)cc2)c2ccc(C(=O)NCc3ccccc3C#N)cc2C12CCOCC2 (centres unmarked) [Example 8, N-(2-cyanobenzyl)-1-[(4-fluorophenyl)sulfonyl]-2-methyl-1,2,2′,3′,5′,6′-hexahydrospiro[indole-3,4′-pyran]-5-carboxamide] | 2510 nM
7 | CC1N(S(=O)(=O)c2ccc(F)cc2)c2ccc(C(=O)NCc3ccccc3S(C)(=O)=O)cc2C12CCOCC2 (centres unmarked) [Example 9, 1-[(4-fluorophenyl)sulfonyl]-N-(2-mesylbenzyl)-2-methyl-1,2,2′,3′,5′,6′-hexahydrospiro[indole-3,4′-pyran]-5-carboxamide] | 4830 nM
8 | CC1N(S(=O)(=O)c2ccc(F)cc2)c2ccc(C(=O)Nc3cccc(S(C)(=O)=O)c3)cc2C12CCOCC2 (centres unmarked) [Example 10, 1-[(4-fluorophenyl)sulfonyl]-N-(3-mesylphenyl)-2-methyl-1,2,2′,3′,5′,6′-hexahydrospiro[indole-3,4′-pyran]-5-carboxamide] | 1390 nM
9 | CC1N(S(=O)(=O)c2ccc(F)cc2)c2ccc(C(=O)Nc3cccc(S(=O)(=O)N(C)C)c3)cc2C12CCOCC2 (centres unmarked) [Example 11, N-[3-(N,N-dimethylsulfamoyl)phenyl]-1-[(4-fluorophenyl)sulfonyl]-2-methyl-1,2,2′,3′,5′,6′-hexahydrospiro[indole-3,4′-pyran]-5-carboxamide] | 378 nM
10 | O=C(NCc1ccccc1Cl)c1ccc2c(c1)C1(CC[S+]([O-])CC1)C(C1CC1)N2S(=O)(=O)c1ccc(F)cc1 (centres unmarked) [Example 13, N-(2-Chlorobenzyl)-2-cyclopropyl-1-[(4-fluorophenyl)sulfonyl]-1,2,2′,3′,5′,6′-hexahydrospiro[indole-3,4′-thiopyran]-5-carboxamide 1′-oxide] | 30 nM
11 | O=C(NCc1ncccc1C(F)(F)F)c1ccc2c(c1)C1(CCS(=O)(=O)CC1)C(C1CC1)N2S(=O)(=O)c1ccc(F)cc1 (centres unmarked) [Example 15, 2-cyclopropyl-1-[(4-fluorophenyl)sulfonyl]-N-{[3-(trifluoromethyl)pyridin-2-yl]methyl}-1,2,2′,3′,5′,6′-hexahydrospiro[indole-3,4′-thiopyran]-5-carboxamide 1′,1′-dioxide] | 103 nM
12 | O=C(NCc1ccc(F)cc1Cl)c1ccc2c(c1)C1(CCS(=O)(=O)CC1)C(C1CC1)N2S(=O)(=O)c1ccc(F)cc1 (centres unmarked) [Example 16, N-(2-chloro-4-fluorobenzyl)-2-cyclopropyl-1-[(4-fluorophenyl)sulfonyl]-1,2,2′,3′,5′,6′-hexahydrospiro[indole-3,4′-thiopyran]-5-carboxamide 1′,1′-dioxide] | 74 nM
13 | O=C(NCc1ncc(F)cc1Cl)c1ccc2c(c1)C1(CCS(=O)(=O)CC1)C(C1CC1)N2S(=O)(=O)c1ccc(F)cc1 (centres unmarked) [Example 17, N-[(3-chloro-5-fluoropyridin-2-yl)methyl]-2-cyclopropyl-1-[(4-fluorophenyl)sulfonyl]-1,2,2′,3′,5′,6′-hexahydrospiro[indole-3,4′-thiopyran]-5-carboxamide 1′,1′-dioxide] | 184 nM
14 | O=C(NCc1ccccc1Cl)c1ccc2c(c1)C1(CCS(=O)(=O)CC1)C(C1CC1)N2S(=O)(=O)c1ccc(F)cc1 (centres unmarked) [Example 18, N-(2-chlorobenzyl)-2-cyclopropyl-1-[(4-fluorophenyl)sulfonyl]-1,2,2′,3′,5′,6′-hexahydrospiro[indole-3,4′-thiopyran]-5-carboxamide 1′,1′-dioxide] | 47 nM
15 | CC(C)(NC(=O)c1ccc2c(c1)C1(CCS(=O)(=O)CC1)C(C1CC1)N2S(=O)(=O)c1ccc(F)cc1)c1ccc(F)cc1Cl (stereo not drawn) [Example 19, N-(2-chloro-4-fluoro-α,α-dimethylbenzyl)-2-cyclopropyl-1-[(4-fluorophenyl)sulfonyl]-1,2,2′,3′,5′,6′-hexahydrospiro[indole-3,4′-thiopyran]-5-carboxamide 1′,1′-dioxide] | 4170 nM
16 | CC(C)(NC(=O)c1ccc2c(c1)C1(CCS(=O)(=O)CC1)C(C1CC1)N2S(=O)(=O)c1ccc(F)cc1)c1ccc(F)cc1 (stereo not drawn) [Example 20, 2-cyclopropyl-N-(4-fluoro-α,α-dimethylbenzyl)-1-[(4-fluorophenyl)sulfonyl]-1,2,2′,3′,5′,6′-hexahydrospiro[indole-3,4′-thiopyran]-5-carboxamide 1′,1′-dioxide] | 346 nM
17 | O=C(NC1(c2ccccc2Cl)CC1)c1ccc2c(c1)C1(CCS(=O)(=O)CC1)C(C1CC1)N2S(=O)(=O)c1ccc(F)cc1 (centres unmarked) [Example 21, N-[1-(2-chlorophenyl)cyclopropyl]-2-cyclopropyl-1-[(4-fluorophenyl)sulfonyl]-1,2,2′,3′,5′,6′-hexahydrospiro[indole-3,4′-thiopyran]-5-carboxamide 1′,1′-dioxide] | 3040 nM
18 | O=C(NCc1ccccn1)c1ccc2c(c1)C1(CCS(=O)(=O)CC1)C(C1CC1)N2S(=O)(=O)c1ccc(F)cc1 (centres unmarked) [Example 22, 2-cyclopropyl-1-[(4-fluorophenyl)sulfonyl]-N-(2-pyridylmethyl)-1,2,2′,3′,5′,6′-hexahydrospiro[indole-3,4′-thiopyran]-5-carboxamide 1′,1′-dioxide] | 1480 nM
19 | CS(=O)(=O)c1cccc(NC(=O)c2ccc3c(c2)C2(CCS(=O)(=O)CC2)C(C2CC2)N3S(=O)(=O)c2ccc(F)cc2)c1 (centres unmarked) [Example 23, 2-cyclopropyl-1-[(4-fluorophenyl)sulfonyl]-N-(3-mesylphenyl)-1,2,2′,3′,5′,6′-hexahydrospiro[indole-3,4′-thiopyran]-5-carboxamide 1′,1′-dioxide] | 328 nM
20 | O=C(NCCc1ccccc1Cl)c1ccc2c(c1)C1(CCS(=O)(=O)CC1)C(C1CC1)N2S(=O)(=O)c1ccc(F)cc1 (centres unmarked) [Example 25, N-[2-(2-chlorophenyl)ethyl]-2-cyclopropyl-1-[(4-fluorophenyl)sulfonyl]-1,2,2′,3′,5′,6′-hexahydrospiro[indole-3,4′-thiopyran]-5-carboxamide 1′,1′-dioxide] | 2620 nM
